{"source": "paper PMC5866837", "about": "“Towards a generic physiologically based kinetic model to predict in vivo uterotrophic responses in rats by reverse dosimetry of in vitro estrogenicity data” (Archives of Toxicology, 2017)", "key": {"[1]": {"experiment": "Rapid equilibrium dialysis (RED), fraction unbound in rat serum", "assay_type": "in vitro ADME", "details": "RED 5 h at 37 °C, read-out: f ub (fraction unbound)", "procedure": "(§1) The assay medium used in the ER-CALUX and the proliferation assay contains 5% FCS, so the RED assay was performed using the assay medium for these two assays and for rat serum. The f ub was determined using the protocol described by Waters et al. ([2008]). The RED device insert has two chambers, a plasma and a buffer chamber. […] After incubating for 5 h at 37 °C at 250 rpm on an orbital shaker, the system reaches equilibrium (van […] et al. [2011]). 25 μL of post-dialysis samples were collected from the plasma and buffer chambers in separate tubes. Simultaneously, 25 μL of corresponding buffer (PBS) was added to the sample taken from the plasma chamber and the same volume of corresponding rat serum or in vitro medium was added to the sample taken from the buffer chamber. Then, 300 μL cold precipitation buffer (90/10 ACN/water) was added to both samples to precipitate the proteins and release the compound. The samples were put on ice for 30 min and subsequently centrifuged for 15 min at 15,000×g (CT 15RE, Hitachi Koki Co., Ltd). Then, the supernatants were collected for UPLC analysis. By determining the compound concentration in each chamber, the fraction unbound can be calculated with the following equation: f ub = concentration in buffer chamber/concentration in plasma chamber (van […] et al. [2011]; Waters et al. [2008]). […]"}, "[2]": {"experiment": "Rapid equilibrium dialysis (RED), fraction unbound in in vitro assay medium", "assay_type": "in vitro ADME", "details": "bovine, assay medium with 5% FCS, RED 5 h at 37 °C, read-out: f ub (fraction unbound)", "procedure": "as §1"}, "uterus weight in rats [3]": {"system": "uterus weight in rats", "experiment": "In vivo uterotrophic assay and BMD analysis (PROAST) of its data", "parameters": "species or system rat", "details": "for BMD (BMD10) / BMDL (BMDL10) / BMDU (BMDU10): PROAST exponential model, BMR 10%, absolute uterus weight; for BMDL (BMDL10) / BMDU (BMDU10): in mg/kg", "procedure": "To that end, a literature research was performed using the search terms uterotrophic assay, rats, oral administration.\nFurthermore, benchmark dose (BMD) values derived from the predicted dose–response data were compared with BMD values derived from the dose–response data from the uterotrophic assay as reported in the literature. To that end, BMD modelling was applied on dose–response data using the exponential model for continuous data of the PROAST software from The National Institute for Public Health and the Environment of the Netherlands (RIVM) version 38.9 (Slob [2002]). The benchmark response (BMR) was defined as a 10% increase of response change compared to the control. The predicted dose level with an estimated 10% extra risk obtained is shown as BMD10. The lower and upper limits of the 95% confidence interval on the BMD10 are defined as BMDL10 and BMDU10. In PROAST, BMD values are only reported if the model fit of the data is accepted, so when the software provided BMD values, it was assumed that the data had been adequately modelled. […] For in vivo studies, the absolute uterus weight values were used as input for the response in the continuous model."}, "[4]": {"system": "uterotrophic growth in rats", "experiment": "PBK modelling-based reverse dosimetry of YES assay data and BMD analysis", "parameters": "species or system rat", "from_the_text": "For each in vitro concentration–response dataset from the three assays, the PBK modelling-based reverse dosimetry approach was used to predict the dose levels that are required to reach concentrations in blood that were applied in these assays. As it is assumed that the fraction unbound (f ub) of the parent compound induces the toxicity, the possible difference in the f ub in the in vitro assay medium and in rat serum was corrected prior to applying reverse dosimetry. The f ub of E2 and BPA were determined for in vitro assay media and rat serum as described below. PBK modelling-based reverse dosimetry. […] Consequently, for reverse dosimetry, the in vitro unbound concentration (C ub, in vitro) was set equal to the unbound C max in blood (C ub, in vivo) to determine the dose that is required to cause an in vivo estrogenic effect. The C ub, in vitro was estimated based on the equation: C ub, in vitro = C in vitro × f ub, in vitro, where C in vitro is the nominal concentration applied in the in vitro assay and f ub, in vitro is the fraction unbound of the chemical in the in vitro assay medium as determined using the RED assay. The C ub, in vivo was estimated based on the equation: C ub, in vivo = C in vivo × f ub, in vivo, where C in vivo is the nominal blood concentration in rat and fub, in vivo is the fub in rat serum. Assuming that for the prediction of in vivo toxicity, the C ub, in vitro is the same as C ub, in vivo, the nominal blood concentration in rat can be described by the following equation: C in vivo = C ub, in vivo/f ub, in vivo = C ub, in vitro/f ub, in vivo = (C in vitro × f ub, in vitro)/fub, in vivo. By calculating with the PBK model which dose is required to reach a C in vivo, an in vitro concentration can be translated into an in vivo dose. Performing this exercise for all the concentrations applied in the in vitro assays, the in vitro concentration–response curves were translated into predicted in vivo dose–response curves. […]"}, "[5]": {"parameters": "method as in Hansch et al. [1995]", "details": "ref Hansch et al. [1995]; cited from earlier work"}, "[6]": {"details": "rat, oral, read-out: In vivo C max, cited from earlier work"}, "uterus weight in rats [7]": {"system": "uterus weight in rats", "details": "oral gavage, cited from earlier work"}, "human ERs": {"system": "human ERs", "parameters": "method as in Kolle et al. [2010]; Wang et al. [2014]", "details": "ref Kolle et al. [2010]; Wang et al. [2014]; cited from earlier work"}, "[8]": {"details": "in vivo data of Kanno et al. 2003 (doses in mg/kg bw)"}, "[9]": {"details": "in vivo data of Tinwell and Ashby 2004 (doses in mg/kg bw)"}, "[10]": {"details": "in vivo data of Odum et al. 1997 (doses in mg/kg bw)"}}, "note": "Where two headings read alike, the source gives them in different places. Marks after values point to notes of the source that are not given here.", "data": [{"smiles": "CC(C)(c1ccc(O)cc1)c1ccc(O)cc1", "note": "[BPA, bisphenol A]", "values": [{"measurement": "fraction unbound at 5 h, 5 µM", "setting": "[1]", "value": "0.04 ± 0.001"}, {"measurement": "fraction unbound at 5 h, 5 µM", "setting": "[2]", "value": "0.461 ± 0.035"}, {"measurement": "Fold difference in BMD10 values between the two in vivo studies", "setting": "uterus weight in rats [3]; Kanno et al. 2003 vs Tinwell and Ashby 2004", "value": 25.8, "unit": "fold"}, {"measurement": "BMD (BMD10)", "setting": "uterus weight in rats [3]; [8]", "value": 207, "unit": "mg/kg"}, {"measurement": "BMDL (BMDL10)", "setting": "uterus weight in rats [3]; [8]", "value": 62.66}, {"measurement": "BMDU (BMDU10)", "setting": "uterus weight in rats [3]; [8]", "value": 516.80}, {"measurement": "BMD (BMD10)", "setting": "uterus weight in rats [3]; [9]", "value": 8.02, "unit": "mg/kg"}, {"measurement": "BMDL (BMDL10)", "setting": "uterus weight in rats [3]; [9]", "value": 1.00}, {"measurement": "BMDU (BMDU10)", "setting": "uterus weight in rats [3]; [9]", "value": 37.13}, {"measurement": "Predicted BMDL10 fold higher than BMDL10 of the in vivo data", "setting": "[4]; in vivo data from Tinwell and Ashby (2004)", "value": 4.7, "unit": "fold"}, {"measurement": "Predicted BMDL10 fold lower than BMDL10 of the in vivo data", "setting": "[4]; in vivo data of Kanno et al. (2003)", "value": 13.4, "unit": "fold"}, {"measurement": "Log P ow", "setting": "[5]", "value": "3.3^a"}, {"measurement": "Cmax", "setting": "[6]; 10 mg/kg bw, ref Pottenger et al. (2000)", "value": 175, "unit": "nM"}, {"measurement": "Cmax", "setting": "[6]; 100 mg/kg bw, ref Pottenger et al. (2000)", "value": 9880, "unit": "nM"}, {"measurement": "Mean value of uterus weight", "setting": "uterus weight in rats [7]; rat (AP), 10 mg/kg bw, ref Tinwell and Ashby 2004", "value": 23.9, "unit": "mg"}, {"measurement": "Mean value of uterus weight", "setting": "uterus weight in rats [7]; rat (AP), 100 mg/kg bw, ref Tinwell and Ashby 2004", "value": 29.0, "unit": "mg"}, {"measurement": "Mean value of uterus weight", "setting": "uterus weight in rats [7]; rat (AP), 300 mg/kg bw, ref Tinwell and Ashby 2004", "value": 38.5, "unit": "mg"}, {"measurement": "Mean value of uterus weight", "setting": "uterus weight in rats [7]; rat (AP), 600 mg/kg bw, ref Tinwell and Ashby 2004", "value": 41.4, "unit": "mg"}, {"measurement": "Mean value of uterus weight", "setting": "uterus weight in rats [7]; rat (AP), 800 mg/kg bw, ref Tinwell and Ashby 2004", "value": 59.0, "unit": "mg"}, {"measurement": "Mean value of uterus weight", "setting": "uterus weight in rats [7]; rat (Sprague–Dawley), 60 mg/kg bw, ref Kanno et al. 2003", "value": 26.8, "unit": "mg"}, {"measurement": "Mean value of uterus weight", "setting": "uterus weight in rats [7]; rat (Sprague–Dawley), 200 mg/kg bw, ref Kanno et al. 2003", "value": 30.1, "unit": "mg"}, {"measurement": "Mean value of uterus weight", "setting": "uterus weight in rats [7]; rat (Sprague–Dawley), 375 mg/kg bw, ref Kanno et al. 2003", "value": 30.4, "unit": "mg"}, {"measurement": "Mean value of uterus weight", "setting": "uterus weight in rats [7]; rat (Sprague–Dawley), 600 mg/kg bw, ref Kanno et al. 2003", "value": 37.0, "unit": "mg"}, {"measurement": "Mean value of uterus weight", "setting": "uterus weight in rats [7]; rat (Sprague–Dawley), 1000 mg/kg bw, ref Kanno et al. 2003", "value": 44.1, "unit": "mg"}, {"measurement": "Higher concentrations required for an estrogenic response in the YES assay than in MCF-7/BOS proliferation and U2OS ER-CALUX assays", "setting": "human ERs", "value": "3 orders of magnitude"}]}, {"smiles": "C[C@]12CC[C@@H]3c4ccc(O)cc4CC[C@H]3[C@@H]1CC[C@@H]2O", "note": "[E2, 17β-estradiol]", "values": [{"measurement": "fraction unbound at 5 h, 5 µM", "setting": "[1]", "value": "0.05 ± 0.005"}, {"measurement": "fraction unbound at 5 h, 5 µM", "setting": "[2]", "value": "0.628 ± 0.012"}, {"measurement": "BMD (BMD10)", "setting": "uterus weight in rats [3]; [10]", "value": 0.0134, "unit": "mg/kg"}, {"measurement": "BMDL (BMDL10)", "setting": "uterus weight in rats [3]; [10]", "value": 0.002915}, {"measurement": "BMDU (BMDU10)", "setting": "uterus weight in rats [3]; [10]", "value": 0.03371}, {"measurement": "Predicted BMDL10 lower than that of BPA", "setting": "[4]; YES assay-based prediction", "value": "4 orders of magnitude"}, {"measurement": "Log P ow", "setting": "[5]", "value": "4.0^a"}, {"measurement": "Cmax", "setting": "[6]; 0.02 mg/kg bw, ref Bawarshi-Nassar et al. (1989)", "value": 0.6, "unit": "nM"}, {"measurement": "Cmax", "setting": "[6]; 0.08 mg/kg bw, ref Bawarshi-Nassar et al. (1989)", "value": 2.7, "unit": "nM"}, {"measurement": "Mean value of uterus weight", "setting": "uterus weight in rats [7]; rat (AP), 0.01 mg/kg bw, ref Odum et al., 1997", "value": 37.5, "unit": "mg"}, {"measurement": "Mean value of uterus weight", "setting": "uterus weight in rats [7]; rat (AP), 0.02 mg/kg bw, ref Odum et al., 1997", "value": 39, "unit": "mg"}, {"measurement": "Mean value of uterus weight", "setting": "uterus weight in rats [7]; rat (AP), 0.04 mg/kg bw, ref Odum et al., 1997", "value": 38.3, "unit": "mg"}, {"measurement": "Mean value of uterus weight", "setting": "uterus weight in rats [7]; rat (AP), 0.10 mg/kg bw, ref Odum et al., 1997", "value": 68.1, "unit": "mg"}, {"measurement": "Mean value of uterus weight", "setting": "uterus weight in rats [7]; rat (AP), 0.20 mg/kg bw, ref Odum et al., 1997", "value": 70.9, "unit": "mg"}, {"measurement": "Mean value of uterus weight", "setting": "uterus weight in rats [7]; rat (AP), 0.40 mg/kg bw, ref Odum et al., 1997", "value": 101.7, "unit": "mg"}, {"measurement": "Higher concentrations required for an estrogenic response in the YES assay than in MCF-7/BOS proliferation and U2OS ER-CALUX assays", "setting": "human ERs", "value": "2 orders of magnitude"}]}]}
